Results reported in patent US8530504B2, “Pyrazolothiazole compound” (Eisai R&D Management Co., Ltd., priority 2009, dated 2013).

Molecular target: human CRFR1 (Homo sapiens (Human), UniProt P34998)
Assay: CRFR1 Binding Test;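 note: nonspecific binding was determined with a 4,000-fold excess of unlabelled sauvagine and subtracted from every reading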
Settings: competition with 100 pM 125I-CRF, SPA method, membrane fraction of human CRFR1-expressing HEK293 cells; read-out: CRF1 receptor binding capacity IC50

human CRFR1, sequence (P34998 24-415): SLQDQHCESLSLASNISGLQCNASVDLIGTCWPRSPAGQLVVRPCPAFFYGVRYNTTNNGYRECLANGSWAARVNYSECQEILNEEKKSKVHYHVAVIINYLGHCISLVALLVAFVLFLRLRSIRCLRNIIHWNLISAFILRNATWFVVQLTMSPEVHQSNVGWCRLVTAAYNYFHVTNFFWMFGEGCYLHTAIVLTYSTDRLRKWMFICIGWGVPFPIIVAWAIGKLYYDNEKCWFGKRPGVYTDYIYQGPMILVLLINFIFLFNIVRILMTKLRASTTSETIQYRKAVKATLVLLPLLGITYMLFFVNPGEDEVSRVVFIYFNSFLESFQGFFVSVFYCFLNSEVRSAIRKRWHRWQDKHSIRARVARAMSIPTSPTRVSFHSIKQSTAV

Compound | IC50 [nM]
CCCN(CC1CCOC1)c1c(OC)nn2c(-c3cnc(N(C)C)cc3OC)csc12 (centres unmarked) [Example 16, [3-(6-Dimethylamino-4-methoxy-pyridin-3-yl)-6-methoxy-pyrazolo[5,1-b][1,3]thiazol-7-yl]-propyl-(tetrahydro-furan-3-ylmethyl)-amine] | 132
CCCCN(CCOC)c1c(OC)nn2c(-c3c(OC)cc(COC)cc3OC)csc12 [Example 28, N-Butyl-3-[2,6-dimethoxy-4-(methoxymethyl)phenyl]-6-methoxy-N-(2-methoxyethyl)pyrazolo[5,1-b][1,3]thiazole-7-amine] | 40
CCc1cc(OC)c(-c2csc3c(N(CC4CC4)CC4CCOC4)c(OC)nn23)c(OC)c1 (centres unmarked) [Example 23, Cyclopropylmethyl-[3-(4-ethyl-2,6-dimethoxy-phenyl)-6-methoxy-pyrazolo[5,1-b][1,3]thiazol-7-yl]-(tetrahydro-furan-3-ylmethyl)amine] | 44
COCCCN(c1c(OC)nn2c(-c3c(OC)cc(COC)cc3OC)csc12)C1CCC1 [Example 62, N-Cyclobutyl-3-[2,6-dimethoxy-4-(methoxymethyl)phenyl]-6-methoxy-N-(3-methoxypropyl)pyrazolo[5,1-b][1,3]thiazole-7-amine] | 73
CCN(c1c(OC)nn2c(-c3c(OC)cc(COC)cc3OC)csc12)C1CCC1 [Example 59, N-Cyclobutyl-3-[2,6-dimethoxy-4-(methoxymethyl)phenyl]-N-ethyl-6-methoxypyrazolo[5,1-b][1,3]thiazole-7-amine] | 24
CCCN(Cc1ccncc1)c1c(OC)nn2c(-c3c(OC)cc(COC)cc3OC)csc12 [Example 44, 3-[2,6-Dimethoxy-4-(methoxymethyl)phenyl]-6-methoxy-N-propyl-N-(pyridin-4-ylmethyl)pyrazolo[5,1-b][1,3]thiazole-7-amine] | 53
COCc1cc(OC)c(-c2csc3c(N(CC4CC4)CC4C5COCC54)c(OC)nn23)c(OC)c1 (single isomer, unassigned; diastereomer 2) [Example 96, N-(Cyclopropylmethyl)-3-[2,6-dimethoxy-4-(methoxymethyl)phenyl]-6-methoxy-N-[3-oxabicyclo[3.1.0]hex-6-ylmethyl]-pyrazolo[5,1-b][1,3]thiazole-7-amine (diastereomer 2)] | 62
COCCN(c1c(OC)nn2c(-c3c(OC)cc(COC)cc3OC)csc12)C1CCCCC1 [Example 54, N-Cyclohexyl-3-[2,6-dimethoxy-4-(methoxymethyl)phenyl]-6-methoxy-N-(2-methoxyethyl)pyrazolo[5,1-b][1,3]thiazole-7-amine] | 20
CCCN(c1c(OC)nn2c(-c3c(OC)cc(COC)cc3OC)c(C)sc12)C1CCOCC1 [Example 7, [3-(2,6-Dimethoxy-4-methoxymethyl-phenyl)-6-methoxy-2-methyl-pyrazolo[5,1-b][1,3]thiazol-7-yl]-propyl-(tetrahydro-pyran-4-yl)-amine] | 94
COCCCN(c1c(OC)nn2c(-c3c(OC)cc(COC)cc3OC)csc12)C1CCCC1 [Example 63, N-Cyclopentyl-3-[2,6-dimethoxy-4-(methoxymethyl)phenyl]-6-methoxy-N-(3-methoxypropyl)pyrazolo[5,1-b][1,3]thiazole-7-amine] | 61
COCCCN(CC1CC1)c1c(OC)nn2c(-c3c(OC)cc(COC)cc3OC)csc12 [Example 32, N-(Cyclopropylmethyl)-3-[2,6-dimethoxy-4-(methoxymethyl)phenyl]-6-methoxy-N-(3-methoxypropyl)pyrazolo[5,1-b][1,3]thiazole-7-amine] | 57
CCN(CC1C2COCC21)c1c(OC)nn2c(-c3c(OC)cc(C4CC4)cc3OC)csc12 (single isomer, unassigned; diastereomer 1) [Example 97, 3-(4-Cyclopropyl-2,6-dimethoxyphenyl)-N-ethyl-6-methoxy-N-[3-oxabicyclo[3.1.0]hex-6-ylmethyl]pyrazolo[5,1-b][1,3]thiazole-7-amine (diastereomer 1)] | 80
COCc1cc(OC)c(-c2csc3c(N(CCCF)Cc4cccnc4)c(OC)nn23)c(OC)c1 [Example 71, 3-[2,6-Dimethoxy-4-(methoxymethyl)phenyl]-N-(3-fluoropropyl)-6-methoxy-N-(pyridin-3-ylmethyl)-pyrazolo[5,1-b][1,3]thiazole-7-amine] | 58
COc1cc(C2CC2)cc(OC)c1-c1csc2c(N(CC3CC3)CC3CCOC3)c(OC)nn12 (centres unmarked) [Example 60, 3-(4-Cyclopropyl-2,6-dimethoxyphenyl)-N-(cyclopropylmethyl)-6-methoxy-N-(tetrahydrofuran-3-ylmethyl)pyrazolo[5,1-b][1,3]thiazole-7-amine] | 33
COCCCN(c1c(OC)nn2c(-c3c(OC)cc(C4CC4)cc3OC)csc12)C1CCCC1 [Example 69, N-Cyclopentyl-3-(4-cyclopropyl-2,6-dimethoxyphenyl)-6-methoxy-N-(3-methoxypropyl)pyrazolo[5,1-b][1,3]-thiazole-7-amine] | 48
CCCN(c1c(OC)nn2c(-c3c(OC)cc(CC)cc3OC)csc12)C1CCOCC1 [Example 22, [3-(4-Ethyl-2,6-dimethoxyphenyl)-6-methoxypyrazolo[5,1-b][1,3]thiazol-7-yl]-propyl-(tetrahydro-pyran-4-yl)amine] | 64

Compound | IC50 [nM]
CCCN(c1c(OC)nn2c(-c3c(OC)cc(C4CC4)cc3OC)csc12)C1CCOCC1 [Example 61, 3-(4-Cyclopropyl-2,6-dimethoxyphenyl)-6-methoxy-N-propyl-N-(tetrahydro-2H-pyran-4-yl)pyrazolo[5,1-b][1,3]thiazole-7-amine] | 39
CCCN(CCC)c1c(C)nn2c(-c3c(OC)cc(COC)cc3OC)c(SC)sc12 [Example 2] | 39
CCOCCN(CC1CC1)c1c(OC)nn2c(-c3c(OC)cc(COC)cc3OC)csc12 [Example 45, N-(Cyclopropylmethyl)-3-[2,6-dimethoxy-4-(methoxymethyl)phenyl]-N-(2-ethoxyethyl)-6-methoxypyrazolo[5,1-b][1,3]thiazole-7-amine] | 48
COc1cc(Cl)cc(OC)c1-c1csc2c(N(CC3CC3)CC3CCOC3)c(OC)nn12 (centres unmarked) [Example 30, 3-(4-Chloro-2,6-dimethoxyphenyl)-N-(cyclopropylmethyl)-6-methoxy-N-(tetrahydrofuran-3-ylmethyl)pyrazolo[5,1-b][1,3]thiazole-7-amine] | 49
CCCN(c1c(OC)nn2c(-c3c(OC)cc(COC)cc3OC)csc12)C1CCCOCC1 (centres unmarked) [Example 34, 3-[2,6-Dimethoxy-4-(methoxymethyl)phenyl]-6-methoxy-N-oxepan-4-yl-N-propylpyrazolo[5,1-b][1,3]thiazole-7-amine] | 130
COCc1cc(OC)c(-c2csc3c(N(CC4CC4)CC(C)OC)c(OC)nn23)c(OC)c1 (centres unmarked) [Example 51, N-(Cyclopropylmethyl)-3-[2,6-dimethoxy-4-(methoxymethyl)phenyl]-6-methoxy-N-(2-methoxypropyl)pyrazolo[5,1-b][1,3]thiazole-7-amine] | 36
CCCN(c1c(OC)nn2c(-c3c(OC)cc(COC(C)C)cc3OC)csc12)C1CCOCC1 [Example 68, [3-(4-Isopropoxymethyl-2,6-dimethoxyphenyl)-6-methoxy-pyrazolo[5,1-b][1,3]thiazol-7-yl]-propyl-(tetrahydro-pyran-4-yl)-amine] | 77
CCCN(c1c(OC)nn2c(-c3c(OC)cc(COC)cc3OC)c(CC)sc12)C1CCOCC1 [Example 9, [3-(2,6-Dimethoxy-4-methoxymethyl-phenyl)-2-ethyl-6-methoxy-pyrazolo[5,1-b][1,3]thiazol-7-yl]-propyl-(tetrahydro-pyran-4-yl)-amine] | 116
CCCCN(CC1COCOC1)c1c(OC)nn2c(-c3c(OC)cc(COC)cc3OC)csc12 [Example 12, Butyl-[3-(2,6-dimethoxy-4-methoxymethyl-phenyl)-6-methoxy-pyrazolo[5,1-b][1,3]thiazol-7-yl)-[1,3]dioxan-5-ylmethyl-amine] | 71
COc1cc(C)cc(OC)c1-c1csc2c(N(CC3CC3)CC3CCOC3)c(OC)nn12 (centres unmarked) [Example 26, N-(Cyclopropylmethyl)-3-(2,6-dimethoxy-4-methylphenyl)-6-methoxy-N-(tetrahydrofuran-3-ylmethyl)pyrazolo[5,1-b][1,3]thiazole-7-amine] | 33
CCCN(CCCOC)c1c(OC)nn2c(-c3c(OC)cc(COC)cc3OC)csc12 [Example 39, 3-[2,6-Dimethoxy-4-(methoxymethyl)phenyl]-6-methoxy-N-(3-methoxypropyl)-N-propylpyrazolo[5,1-b][1,3]thiazole-7-amine] | 57
COc1cc(C#N)cc(OC)c1-c1csc2c(N(CC3CC3)CC3C4COCC43)c(OC)nn12 (single isomer, unassigned; diastereomer 1) [Example 100] | 89
COCc1cc(OC)c(-c2csc3c(N(C4CCC4)C4CCOC4)c(OC)nn23)c(OC)c1 (centres unmarked) [Example 67, N-Cyclobutyl-3-[2,6-dimethoxy-4-(methoxymethyl)phenyl]-6-methoxy-N-(tetrahydrofuran-3-yl)pyrazolo[5,1-b][1,3]thiazole-7-amine] | 52
CCOc1nn2c(-c3c(OC)cc(COC)cc3OC)csc2c1N(CC1CC1)C1CCOCC1 [Example 81, N-(Cyclopropylmethyl)-3-[2,6-dimethoxy-4-(methoxymethyl)phenyl]-6-ethoxy-N-(tetrahydro-2H-pyran-4-yl)-pyrazolo[5,1-b][1,3]thiazole-7-amine] | 89
CCCN(c1cccnc1)c1c(OC)nn2c(-c3c(OC)cc(COC)cc3OC)csc12 [Example 87, 3-[2,6-Dimethoxy-4-(methoxymethyl)phenyl]-6-methoxy-N-propyl-N-pyridin-3-ylpyrazolo[5,1-b][1,3]thiazole-7-amine] | 36
COCc1cc(OC)c(-c2c(C)sc3c(N(CC4CC4)CC4CCOC4)c(OC)nn23)c(OC)c1 (centres unmarked) [Example 8, Cyclopropylmethyl-[3-(2,6-dimethoxy-4-methoxymethyl-phenyl)-6-methoxy-2-methyl-pyrazolo[5,1-b][1,3]thiazol-7-yl]-(tetrahydro-furan-3-ylmethyl)-amine] | 51
